What all share (format): cell-based, Staphylococcus aureus
Assay [1] concerns VISA. The assay can be described thus: Growth of VISA in liquid medium containing VCM with or without mupirocin. As to conditions: FIG. 1(b). The source says:
(§1) From FIG. 1(b), when VISA was used, an increase in the growth rate by the addition of mupirocin was not observed.

The subject of assay [2] is slow-VISA. The assay can be described thus: ETEST of VCM on BHI medium added with mupirocin, slow-VISA. As to conditions: BHI medium added with mupirocin at a concentration at which growth was not suppressed. As to the method:
The pictures on the left show the results of a mupirocin-free medium after 96 hours, the pictures on the right show the results of a mupirocin-containing medium after 96 hours, and black arrows show the points after 48 hours.
(§2) (2) The bacteria grown in step (a) is adjusted to OD=0.3 using an absorbance measuring instrument (wavelength of 578 nm), and it was set as 1×10^8 cells. Then, the bacteria are spread on a BHI agar medium of Eiken Chemical Co., Ltd. and a mupirocin-containing BHI agar medium, and the ETEST® strips (bioMerieux Japan Ltd.) of VCM and cefoxitin are placed thereon, followed by culture for 48 hours in accordance with the CLSI guideline. After 48 hours, tested bacteria having a MIC of cefoxitin of ≥8 μg/mL and a MIC of VCM of >6 μg/mL are suspected to be slow-VISA.
(§3) Further, it was supposed that the resistance further increased when the stringent response relating to those mutated genes was induced.

The subject of assay [3] is vancomycin-sensitive strain. The assay can be described thus: ETEST of VCM on BHI medium added with mupirocin, vancomycin-sensitive strain. Conditions: BHI medium added with mupirocin at a concentration at which growth was not suppressed. As to the method:
as §2, §3

Assay [4] deals with slow-VISA. The assay can be described thus: Disk diffusion method of VCM on BHI agar medium with or without mupirocin. As to conditions: 30 μg/mL vancomycin disks, BHI agar containing 0.032 μg/mL of mupirocin, culture for 48 hours. As to the method:
The disk diffusion method using […] vancomycin disks was separately performed on BHI agar media containing 0.032 μg/mL of mupirocin or BHI agar media in the absence of a drug. […] The values shown above the panels indicate the averages and standard deviations of the diameters of inhibitory zones.
(A growth-free zone around the sample is the usual read-out of agar diffusion tests.)

Assay [5] relates to slow-VISA. The assay can be described thus: Growth of slow-VISA in liquid medium containing VCM with or without mupirocin.
Excerpt: In the figure, MUP indicates mupirocin.
as §1

With `C/C(=C\C(=O)OCCCCCCCCC(=O)O)C[C@@H]1OC[C@H](C[C@@H]2O[C@H]2[C@@H](C)[C@H](C)O)[C@@H](O)[C@H]1O` [mupirocin], in assay [1], the “increase in the growth rate by the addition of mupirocin” value is “not observed”. The “degree of resistance (ETEST of VCM)” value is recorded as “increased” in assay [2] and “did not increase” in assay [3]. Also, the “colonies around inhibitory zone” value in assay [4] was “Small numerous colonies were detected”. Moreover, the “difference in OD values” in assay [5] (0.032 μg/mL mupirocin and 16 μg/mL VCM versus comparison media, in 24 hours) is reported as no less than 1. For the same molecule, the “growth rate versus culture in mupirocin-free liquid medium or medium with growth-affecting mupirocin concentration and 8 μg/mL of VCM” value in assay [5] (liquid medium, 0.032 μg/mL mupirocin and 16 μg/mL of VCM) is “larger”.

Values taken from patent US10844420B2, “Method for detecting slow-VISA” (priority 2016, dated 2020).
